Data set [1] concerns Rattus norvegicus. Briefly: Antidepressant activity in Albino rat assessed as reduction in immobility duration at 20 mg/kg, ip measured during 5 mins by forced swim test relative to control. The data set is classed as functional. On the set-up: scale not given: the % may be the effect or the level left. Conditions: route intraperitoneal.
Data set [2] has as its system Rattus norvegicus. In words: Neurotoxicity in rat assessed as minimal motor impairment by measuring coordination time at 100 mg/kg, ip 30 mins prior to testing by rotarod method. The data set is classed as toxicity, organism-based. On the set-up: dose 100 mg/kg, route intraperitoneal. As to conditions: in vivo, 0.5 h. On the technique in general: The rotarod test checks motor coordination on a turning rod.

Data set [3] relates to Staphylococcus aureus. Briefly: Antibacterial activity against Staphylococcus aureus ATCC 6538 assessed as growth inhibition at 10 ug/ml by disc diffusion method. Type of data set: functional. Conditions: read-out: IZ.
Data set [4] has as its system Pseudomonas aeruginosa. Briefly: Antibacterial activity against Pseudomonas aeruginosa ATCC 9027 assessed as growth inhibition at 10 ug/ml by disc diffusion method. Type of data set: functional. Conditions: read-out: IZ. (A growth-free zone around the sample is the usual read-out of agar diffusion tests.)
Data set [5] relates to Escherichia coli. Briefly: Antibacterial activity against Escherichia coli ATCC 35218 assessed as growth inhibition at 10 ug/ml by disc diffusion method. Type of data set: functional. Conditions: read-out: IZ.
Data set [6] concerns Bacillus subtilis. In words: Antibacterial activity against Bacillus subtilis ATCC […] assessed as growth inhibition at 10 ug/ml by disc diffusion method. Type of data set: functional. As to conditions: read-out: IZ.

As for `CN(C)CCCN1c2ccccc2CCc2ccc(Cl)cc21` [CLOMIPRAMINE], the Activity in data set [1] amounted to 92.21%. Also, in data set [2], the Time was found to be 110.83 s.

As to `O=C1CC(c2cc3ccccc3nc2Cl)N(Cc2ccccc2)C2CCCCC2N1` (configuration not stated), the zone of inhibition at 10 µg/mL in data set [3] is 13 mm; in data set [4], 6 mm; in data set [5] it was 6 mm; in data set [6] it was 6 mm. Moreover, in data set [1], the Activity is 85.27%. Moreover, the Time in data set [2] amounted to 98.33 s.

For the compound `O=C(O)c1cn(C2CC2)c2cc(N3CCNCC3)c(F)cc2c1=O` [CIPROFLOXACIN], the zone of inhibition at 10 µg/mL in data set [3] came out at 18 mm; in data set [4] it was 12 mm; in data set [5], 9 mm; in data set [6], 9 mm.

In the case of `O=C1CC(c2ccc([N+](=O)[O-])cc2)N(Cc2ccccc2)C2CCCCC2N1` (configuration not stated), the zone of inhibition at 10 µg/mL in data set [3] amounted to 15 mm; in data set [4], 9 mm; in data set [5], 4 mm; in data set [6], 6 mm. Further, in data set [1], the Activity is recorded as 89.44%. Besides, the Time in data set [2] is recorded as 93.5 s.

On to `O=C1CC(c2ccccc2Cl)N(Cc2ccccc2)C2CCCCC2N1` (configuration not stated), for which the zone of inhibition at 10 µg/mL in data set [3] came to 8 mm; in data set [4], 9 mm; in data set [5], 4 mm; in data set [6] it was 4 mm. In addition, the Activity in data set [1] amounted to 78.23%. Besides, the Time in data set [2] stood at 95.17 s.

For `O=C1CC(c2ccc(Cl)cc2)N(Cc2ccccc2)C2CCCCC2N1` (configuration not stated), the zone of inhibition at 10 µg/mL in data set [3] was determined as 10 mm; in data set [4] it was 4 mm; in data set [5] it was 3 mm; in data set [6], 3 mm. Also, in data set [1], the Activity turned out to be 88.03%. In data set [2], the Time is on record as 90.83 s.

Consider `O=C1CC(c2ccccc2Br)N(Cc2ccccc2)C2CCCCC2N1` (configuration not stated), for which the zone of inhibition at 10 µg/mL in data set [3] came to 15 mm; in data set [4], 5 mm; in data set [5], 6 mm; in data set [6], 6 mm. The Activity in data set [1] was 71.1%. The Time in data set [2] came to 91.33 s.

As for `O=C1CC(c2cccc([N+](=O)[O-])c2)N(Cc2ccccc2)C2CCCCC2N1` (configuration not stated), the zone of inhibition at 10 µg/mL in data set [3] came out at 10 mm; in data set [4], 7 mm; in data set [5], 4 mm; in data set [6], 3 mm. In addition, the Activity in data set [1] stood at 85.82%. Also, in data set [2], the Time came out at 92.34 s.

In the case of `O=C1CC(c2coc3ccccc3c2=O)N(Cc2ccccc2)C2CCCCC2N1` (configuration not stated), the zone of inhibition at 10 µg/mL in data set [3] turned out to be 8 mm; in data set [4], 5 mm; in data set [5], 5 mm; in data set [6] it was 4 mm. In addition, in data set [1], the Activity amounted to 83.56%. For the same compound, the Time in data set [2] was 97.17 s.

As for `O=C1CC(c2ccc(Br)cc2)N(Cc2ccccc2)C2CCCCC2N1` (configuration not stated), the zone of inhibition at 10 µg/mL was found to be 10 mm in data set [3], 8 mm in data set [4], 5 mm in data set [5] and 5 mm in data set [6]. In addition, the Activity in data set [1] came to 85.82%. For the same compound, the Time in data set [2] is 93.67 s.

With `COc1ccc(C2CC(=O)NC3CCCCC3N2Cc2ccccc2)cc1` (configuration not stated), the zone of inhibition at 10 µg/mL in data set [3] worked out at 12 mm; in data set [4], 7 mm; in data set [5], 5 mm; in data set [6] it was 3 mm. Also, in data set [1], the Activity came out at 86.4%. Moreover, the Time in data set [2] is 97.83 s.

For `COc1ccc(C2CC(=O)NC3CCCCC3N2Cc2ccccc2)cc1OC` (configuration not stated), the zone of inhibition at 10 µg/mL was 7 mm in data set [3], 5 mm in data set [4], 8 mm in data set [5] and 7 mm in data set [6]. Besides, in data set [1], the Activity was determined as 89.03%. Moreover, in data set [2], the Time is given as 96.5 s.

Consider `O=C1CC(c2ccccc2)N(Cc2ccccc2)C2CCCCC2N1` (configuration not stated), for which the zone of inhibition at 10 µg/mL in data set [3] came out at 9 mm; in data set [4] it was 6 mm; in data set [5] it was 5 mm; in data set [6], 6 mm. In addition, the Activity in data set [1] turned out to be 81.56%. The Time in data set [2] is listed as 100.33 s.

For the origin of these results see ChEMBL document CHEMBL2429815, “Synthesis of 5-benzyl-4-aryl-octahydro-1H-benzo[b][1,5]diazepin-2-ones as potent antidepressant and antimicrobial agents” (Med Chem Res, 2013).
